A short description of the series: Dissolution / solubility in water over time, crystalline material compared with solid dispersion. It counts as physicochemical.

SMILES strings stand for the structures. Values after ≈ are worked out from the molar mass of the structure shown.

`Cc1ccc(C)c(OCCCC(C)(C)C(=O)O)c1` [Crystalline, 5-(2,5-dimethylphenoxy)-2,2-dimethylpentanoic acid]: the solubility (as a rule, how much of the substance goes into solution per volume) at 1 h (Time: One hour) is 14.7 µg/mL (≈ 58.8 µM). This molecule yielded a solubility at 20 h (Time: Twenty Hours) of 21.3 µg/mL (≈ 85.1 µM). This molecule also came in with a solubility at 24 h (Time: Twenty-four Hours) of 22.4 µg/mL (≈ 89.5 µM). This molecule displayed a solubility at 2 h (Time: Two Hours) of 18.4 µg/mL (≈ 73.6 µM).
